Measured values from US9283235B2, “Intermittent lowering of cortisol as treatment of clinical conditions associated with abnormal concentrations of cortisol in animals” (Stegram Pharmaceuticals Limited, priority 2001, dated 2016).
“And” between values parts separate entries of the source, which are not always exact repeats. Equal values may be shown once. “Also recorded” adds a separate entry of the source.

How the values were obtained:
[1] = Trilostane and ketotrilostane concentrations in dogs after a single daily dose; type: in vivo, dog
Protocol: Trilostane concentrations in the plasma of 6 dogs: day 0, phase 1 (one 60 mg capsule per day), study no. GB009/01-001.
Ketotrilostane concentrations in the plasma of 6 dogs: day 0, phase 1 (one 60 mg capsule per day), study no. GB009/01-001.
The significance of this is that the metabolite, ketotrilostane, is not retained in the body for an extended period of time.

[2] = test system: dogs with hyperadrenocorticism (HAC); test: Prospective study of trilostane in dogs with spontaneous hyperadrenocorticism (HAC): clinical signs and survival; type: in vivo, dog
Protocol: Animals were entered into a prospective study and all animals required clinical and laboratory signs of hyperadrenocorticism as well as a final diagnosis of this disease. Data collected from each case included a clinical-historicy and physical examination, full blood count (CBC), serum biochemical profile, urinalysis and abdominal ultrasound. An ACTH-stimulation test was performed in all dogs. […] Dogs that had been treated for HAC other medication needed to be off these drugs for at least 10 days. Dogs with renal or hepatic insufficiency and dogs that received steroids were not included in the study.
Dogs with pituitary dependant hyperadrenocorticism or adrenal tumour which was unresectable or the owners were unwilling to have surgery performed, respectively, were treated with trilostane. The initial dose for dogs[…] was 30 mg once daily, dogs between 5 and 15 kg received 60 mg once daily and dogs>15 kg received 120 mg once daily. Dosages were adjusted based on clinical signs, blood biochemical parameters and an ACTH stimulation test.
Follow-up re-examinations took place after 10 days, 4 weeks, 3 mouths, 6 months and then every 6 months or within 4 weeks of adjusting the dosage. At these points, owners were carefully questioned about their perception of the dogs general well being, dissolution of clinical signs and potential side effects and a physical examination was performed. A full biochemical profile and an ACTH stimulation test were carried out. Further tests such as urinanalysis, urine culture, thoracic radiographs, etc. were done if deemed necessary. If the clinical sips of hyperadrenocorticism (polyuria/polydipsia, polyphagia, exercise intolerance, etc.) were still present and if the post-ACTH cortisol concentration remained above 220 nmol/l, trilostane was given twice daily at the same dosage.

serum cortisol [3] = test: Mean serum cortisol over 24 hours (4-hourly samples) in horses with Cushing's disease; type: in vivo, horse
Protocol: (§1) The ability of intermittent administration of Trilostane to block adrenal steroidogenesis was assessed in twenty horses (mean age 21, SD 5.7 years) with equine Cushing's disease. The combined dexamethasone suppression thyrotropin releasing hormone (TRH) stimulation test (17 horses) or TRH stimulation test (3 horses) was used as a standard test of function of the hypothalamic-pituitary-adrenal axis. Serum samples for cortisol analysis were collected via indwelling catheter at 4-hourly intervals over 24 hours on each of the test periods. These were before treatment then at 210 minutes (30 min after I mg i.v. TRH) and 22 hours after […] dexamethasone i.m. Affected horses were treated with 0.4 to 1 mg/kg, (mean 0.5 mg/kg) trilostane administered once daily in feed for a period of 30 days. After 30 days endocrine testing was repeated. Serum cortisol before and after treatment was compared by paired t-test.

[4] = test system: ACTH stimulation of the adrenal gland; test: ACTH stimulation test, serum cortisol in dogs; type: in vivo, dog
Protocol: Dogs were entered into the study sequentially over a period of 2-3.5 years Owners were informed about the experimental nature of the treatment and signed a consent form. The ACTH stimulation test was performed by collection of serum samples before and one hour after intravenous injection of ACTH (Synacthen, Alliance) at a dose of 0.125 mg for dogs weighing less than 15 kg, and 0.25 mg for dogs weighing greater than 15 kg. Cortisol concentration was measured by radioimmunoassay previously validated for dogs Blood for endogenous ACTH was collected into a cooled EDTA tube in ice, centrifuged immediately and the frozen at −20° C. Abdominal ultrasound was performed by an experienced board-certified radiologist and adrenal thickness was assessed as a single measurement made perpendicular to the long axis and was defined as the greatest dorso-ventral dimension.
Dogs with Cushing's disease were given an ACTH stimulation test at 12, 35 and 81 days (average) during a course of treatment with a single daily dose of trilostane of 5-20 mg/kg. […] Thus, trilostane has blunted ACTH stimulation of the adrenal gland.

[5] = test system: horses with equine Cushing's disease; test: Clinical signs in horses with equine Cushing's disease, trilostane once daily in feed for 30 days; type: in vivo, horse
Protocol: as §1

serum cortisol [6] = test: Canine serum cortisol over 24 hours pre and post trilostane; type: in vivo, dog; conditions: for Canine serum cortisol, post: individual dogs
Excerpt: With this level of lowering there was relief of the symptoms of the Cushing's disease.

[7] = mean of all horses, once daily 0.4-1.0 mg/k for 30 days

SMILES: CC12CCC3C(CC[C@@]45O[C@@H]4C(=O)C(C#N)CC35C)C1CC[C@@H]2O (stereo partly drawn) [Trilostane, 2α-cyano-4α,5α-epoxyandrostan-17β-ol-3-one]
- Elimination of trilostane ([1]; after single daily dose): rapid elimination
- Time of peak serum concentration of trilostane ([1]; after single daily dose (FIG. 1, one 60 mg capsule per day, 6 dogs)): 1 to 3 h
- Mean time to euthanasia or death, dogs with PDH ([2]; 22 dogs, SD 195.1, range 27-730 days): 230.9 days
- Mean time since commencing treatment, dogs with PDH alive ([2]; 32 dogs, SD 285.2, range 105 to 1120 days): 417.3 days
- Skin abnormalities ([2]; all dogs with skin abnormalities, 2-3 months after starting): marked improvement with normal hair growth
- Dogs in which polyuria/polydipsia and polyphagia dissipated within the first 10 days of treatment ([2]; dog, in vivo): 29 dogs
- Dogs in which polyuria/polydipsia and polyphagia dissipated within the first month of treatment ([2]; dog, in vivo): 14 dogs
- Dogs with clinical signs improved but always some clinical signs of HAC ([2]; dog, in vivo): 6 dogs
- Dogs with PDH alive ([2]; of 54 dogs with PDH): 32 dogs
- Median survival, dogs with adrenal tumour that died or were euthanised ([2]; six dogs, SD 174.9 days): 260 days
- Change of serum cortisol concentrations pre vs post trilostane, in words (serum cortisol [3]; horses, once daily dose, 30 days): only a small drop in cortisol levels; also recorded: no apparent change in cortisol concentrations
- Mean Cortisol concentrations over 24 hrs, POST TREATMENT Mean (serum cortisol [3]; individual horses, mean of 6 samples at 4-hourly intervals, after 30 days of oral trilostane): 108 and 203.7 and 157.3 and 263.3 and 143 and 193 and 122.8 and 134.4 and 112 and 152.3 and 113 and 194.7 and 94.8 and 112.3 and 183.3 and 245.5 and 158 and 164.5 and 160 and 149.8
- Serum cortisol, Post Trilosane Mean (serum cortisol [3]; individual horses, mean of 6 samples over 24 hours, once daily 0.4-1.0 mg/k for 30 days, listed as Trilosane): 108 nmol/L and 203.7 nmol/L and 157.3 nmol/L and 263.3 nmol/L and 143 nmol/L and 193 nmol/L and 122.8 nmol/L and 134.4 nmol/L and 112 nmol/L and 152.3 nmol/L and 113 nmol/L and 194.7 nmol/L and 94.8 nmol/L and 112.3 nmol/L and 183.3 nmol/L and 245.5 nmol/L and 158 nmol/L and 164 nmol/L and 1 nmol/L and 149 nmol/L
- Serum cortisol, Difference, pre-post (serum cortisol [3]; individual horses, once daily 0.4-1.0 mg/k for 30 days, listed as Trilosane): -7.5 nmol/L and -61.2 nmol/L and -0.1 nmol/L and -6.8 nmol/L and 4 nmol/L and -38 nmol/L and -3 nmol/L and -17.1 nmol/L and 11 nmol/L and 10.4 nmol/L and 3.6 nmol/L and 34.6 nmol/L and -2.5 nmol/L and 2.4 nmol/L and -24.5 nmol/L and -80.5 nmol/L and -31.5 nmol/L and 5.5 nmol/L and 15.2 nmol/L and 3.4 nmol/L
- Serum cortisol, Difference, pre-post, group mean (serum cortisol [3]; [7]): -9.1 ± 26.9 nmol/L
- Serum cortisol, Post Trilosane Mean, group mean (serum cortisol [3]; [7]): 158.3 nmol/L
- % pre Trilostane Cortisol ([4]; 12 days of Trilostane treatment): −29.7%
- Post ACTH stimulation test serum Cortisol ([4]; 12 days of Trilostane treatment (5-10 mg/k), 53 dogs): 249 nmol/L
- % pre Trilostane Cortisol ([4]; 35 days of Trilostane treatment): −30.0%
- Post ACTH stimulation test serum Cortisol ([4]; 35 days of Trilostane treatment (5-10 mg/k), 59 dogs): 231 nmol/L
- % pre Trilostane Cortisol ([4]; 81 days of Trilostane treatment): −27.3%
- Post ACTH stimulation test serum Cortisol ([4]; 81 days of Trilostane treatment (5-10 mg/k), 48 dogs): 214 nmol/L
- Serum cortisol post ACTH as % of the original value ([4]; first re-examination, all dogs): less than 61%
- Cortisol response to ACTH, in words ([4]; single daily dose 5-20 mg/kg, vs non-treatment controls): markedly reduced
- Lethargy / demeanour after therapy ([5]; lethargy present in 19 horses): improvement in demeanour was evident in all horses
- Polyuria and/or polydipsia after treatment ([5]; present in 11 horses): reduced ill all
- Recurrent, chronic or persistent laminitis improved or showed no recurrence ([5]; present in 17 horses): 14 cases
- Severe, acute laminitis on presentation, response ([5]; three horses, rotation and sinking on radiographs): did not respond to trilostane
- Overall clinical response ([5]; trilostane once-per-day): a clinical response was observed; also recorded: improvement in most of the clinical signs in all horses
- Serum cortisol lowering after daily dose, in words (serum cortisol [6]; dogs with Cushing's disease): reduced significantly at 4 hrs
- Canine serum cortisol, post (serum cortisol [6]; 4 hrs after dose, Trilostane 5–10 mg/k over 4–21 days): 5 nmol/l (4×) and 62 nmol/l (2×) and 10 nmol/l and 60 nmol/l and 57 nmol/l and 63 nmol/l
- Canine serum cortisol, post (serum cortisol [6]; 8 hrs after dose): 5 nmol/l (4×) and 48 nmol/l and 171 nmol/l and 51 nmol/l and 262 nmol/l and 183 nmol/l and 315 nmol/l
